Test results published in US9198451B2, “Aroma composition to reduce or suppress undesirable bitter and astringent taste impressions of sweeteners” (SYMRISE AG, priority 2008, dated 2015).
Counter-ions that a name gives are not always drawn. Values belong to the molecule of their own block, whether it stands above or below them.

Assay: Solubility of the salts (saturated solution, filtering, HPLC determination of homoeriodictyol content)
Type: physicochemical
Experimental: The solubility of the homoeriodictyol sodium salt and the salts produced in Example 1 and Example 2 is determined by the production of a saturated solution, filtering of this and then HPLC determination of the homoeriodictyol content.

solubility compared with pure homoeriodictyol sodium salt: better solubility
Solubility in water, containing 1.5 g/l citric acid (water containing 1.5 g/l citric acid, saturated solution, filtered, HPLC, potassium salt): 5100 µg/mL
Solubility in water (saturated solution, filtered, HPLC, potassium salt): 7000 µg/mL
SMILES: COc1cc([C@@H]2CC(=O)c3c(O)cc(O)cc3O2)ccc1O [Example 1, homoeriodictyol potassium salt]

solubility (water containing 1.5 g/l citric acid, aqueous buffer, thermodynamic from solid, saturated solution, filtered, HPLC): 3800 µg/mL
Solubility in water (saturated solution, filtered, HPLC, sodium salt): 2800 µg/mL
SMILES: COc1cc([C@@H]2CC(=O)c3c(O)cc(O)cc3O2)ccc1O [Homoeriodictyol sodium salt, reference compound]

Solubility in water, containing 1.5 g/l citric acid (water containing 1.5 g/l citric acid, saturated solution, filtered, HPLC, Potassium Calcium Salt): 5400 µg/mL
Solubility in water (saturated solution, filtered, HPLC, Potassium Calcium Salt): 10000 µg/mL
SMILES: COc1cc([C@@H]2CC(=O)c3c(O)cc(O)cc3O2)ccc1O [Example 2, Homoeriodictyol Potassium Calcium Salt]
